Laboratory results from PubChem BioAssay AID2060330 (Molecular Pharmacology Branch, DTP, NCI, 2025).

Test system: LG0703-F948-PDC spheroids with HUVEC/MSC, viability
Experiment: Anticancer human tumor LG0703-F948-PDC patient-derived lung adenocarcinoma cell line growth inhibition [IpAb]
Conditions: for IC50: curve of first compound; for viability, T/C: stronger effect = lower value
How it was run: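 Multi-cell spheroids of 60% tumour cells, 25% HUVEC and 15% MSC in ultra-low-attachment U-bottom wells, treated with agents combined with ipatasertib or abemaciclib. Half-log ranges top out near clinical Cmax, or 10 microM when Cmax is unknown.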

[1] = second compound 0.01 µM, first compound 0.0316 µM
[2] = second compound 0.01 µM, first compound 0.1 µM
[3] = second compound 0.0316 µM, first compound 0.0316 µM
[4] = second compound 0.0316 µM, first compound 0.1 µM
[5] = second compound 0.1 µM, first compound 0.0316 µM
[6] = second compound 0.1 µM, first compound 0.1 µM
[7] = second compound 0.316 µM, first compound 0.0316 µM
[8] = second compound 0.316 µM, first compound 0.1 µM
[9] = second compound 1 µM, first compound 0.0316 µM
[10] = second compound 1 µM, first compound 0.1 µM
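Note: spheroids exposed to compounds for seven days before readout.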
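Throughout, for viability, T/C: T/C percent relative to DMSO vehicle wells set as 100% viability.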

Cn1ncc(Cl)c1-c1cc(C(=O)NC(CN)Cc2cccc(F)c2)sc1Cl (stereo not given) + CCN1CCN(Cc2ccc(Nc3ncc(F)c(-c4cc(F)c5nc(C)n(C(C)C)c5c4)n3)nc2)CC1
IC50 (second compound 0.01 µM): 0.643 µM
IC50 (second compound 0.0316 µM): 0.401 µM
IC50 (second compound 0.1 µM): 0.372 µM
IC50 (second compound 0.316 µM): 0.349 µM
IC50 (second compound 1 µM): 0.278 µM
viability, T/C [1]: 88%
viability, T/C [2]: 67.6%
viability, T/C (second compound 0.01 µM, first compound 0.316 µM): 59.3%
viability, T/C (second compound 0.01 µM, first compound 1 µM): 49.3%
viability, T/C (second compound 0.01 µM, first compound 3.16 µM): 21.5%
viability, T/C (second compound 0.01 µM, first compound 10 µM): 0.13%
viability, T/C [3]: 86.1%
viability, T/C [4]: 63.7%
viability, T/C (second compound 0.0316 µM, first compound 0.316 µM): 51.3%
viability, T/C (second compound 0.0316 µM, first compound 1 µM): 45.9%
viability, T/C (second compound 0.0316 µM, first compound 3.16 µM): 13.3%
viability, T/C (second compound 0.0316 µM, first compound 10 µM): 0.13%
viability, T/C [5]: 86.3%
viability, T/C [6]: 68.8%
viability, T/C (second compound 0.1 µM, first compound 0.316 µM): 44.4%
viability, T/C (second compound 0.1 µM, first compound 1 µM): 46.4%
viability, T/C (second compound 0.1 µM, first compound 3.16 µM): 13.5%
viability, T/C (second compound 0.1 µM, first compound 10 µM): 0.13%
viability, T/C [7]: 86.1%
viability, T/C [8]: 70%
viability, T/C (second compound 0.316 µM, first compound 0.316 µM): 41.9%
viability, T/C (second compound 0.316 µM, first compound 1 µM): 48.7%
viability, T/C (second compound 0.316 µM, first compound 3.16 µM): 7.04%
viability, T/C (second compound 0.316 µM, first compound 10 µM): 0.12%
viability, T/C [9]: 77.9%
viability, T/C [10]: 71.5%
viability, T/C (second compound 1 µM, first compound 0.316 µM): 37.4%
viability, T/C (second compound 1 µM, first compound 1 µM): 40.1%
viability, T/C (second compound 1 µM, first compound 3.16 µM): 1.07%
viability, T/C (second compound 1 µM, first compound 10 µM): 0.17%

Cn1ncnc1[C@H]1c2n[nH]c(=O)c3cc(F)cc(c23)N[C@@H]1c1ccc(F)cc1 + CCN1CCN(Cc2ccc(Nc3ncc(F)c(-c4cc(F)c5nc(C)n(C(C)C)c5c4)n3)nc2)CC1
IC50 (second compound 0.01 µM): > 0.1 µM
IC50 (second compound 0.0316 µM): > 0.1 µM
IC50 (second compound 0.1 µM): > 0.1 µM
IC50 (second compound 0.316 µM): > 0.1 µM
IC50 (second compound 1 µM): > 0.1 µM
viability, T/C (second compound 0.01 µM, first compound 0.000316 µM): 104%
viability, T/C (second compound 0.01 µM, first compound 0.001 µM): 98%
viability, T/C (second compound 0.01 µM, first compound 0.00316 µM): 99.2%
viability, T/C (second compound 0.01 µM, first compound 0.01 µM): 97.3%
viability, T/C [1]: 91.2%
viability, T/C [2]: 88.8%
viability, T/C (second compound 0.0316 µM, first compound 0.000316 µM): 94%
viability, T/C (second compound 0.0316 µM, first compound 0.001 µM): 91.4%
viability, T/C (second compound 0.0316 µM, first compound 0.00316 µM): 79.9%
viability, T/C (second compound 0.0316 µM, first compound 0.01 µM): 86.1%
viability, T/C [3]: 92.6%
viability, T/C [4]: 83.4%
viability, T/C (second compound 0.1 µM, first compound 0.000316 µM): 79.5%
viability, T/C (second compound 0.1 µM, first compound 0.001 µM): 88.8%
viability, T/C (second compound 0.1 µM, first compound 0.00316 µM): 73%
viability, T/C (second compound 0.1 µM, first compound 0.01 µM): 75.2%
viability, T/C [5]: 74.4%
viability, T/C [6]: 84.3%
viability, T/C (second compound 0.316 µM, first compound 0.000316 µM): 85.6%
viability, T/C (second compound 0.316 µM, first compound 0.001 µM): 80.6%
viability, T/C (second compound 0.316 µM, first compound 0.00316 µM): 67.7%
viability, T/C (second compound 0.316 µM, first compound 0.01 µM): 86.8%
viability, T/C [7]: 84.1%
viability, T/C [8]: 76.7%
viability, T/C (second compound 1 µM, first compound 0.000316 µM): 82.2%
viability, T/C (second compound 1 µM, first compound 0.001 µM): 72.7%
viability, T/C (second compound 1 µM, first compound 0.00316 µM): 43.4%
viability, T/C (second compound 1 µM, first compound 0.01 µM): 68.9%
viability, T/C [9]: 74.4%
viability, T/C [10]: 80.2%
